Assay results reported in EP4803630A1, “CELL FOR IDENTIFYING MAIT CELL LIGAND, AND METHOD FOR SCREENING MAIT CELL LIGAND USING SAID CELL” (The University of Osaka, priority 2023, dated 2025).
“Also recorded” adds a separate entry of the source.

Key:
TCR of MAIT cells = assay: co-expression reporter cell assay: NFAT-GFP expression on activation of MAIT TCR; type: cell-based; details: 37°C, 6-20 hr, GFP by flow cytometry
Text: (§1) MAIT TCR genes and MR1 molecules genes were synthesized from mouse (Tiloy et al, J Exp Med. 1999) or human (4L4T, Protein Data Bank) and inserted into retroviral vectors (pMX-IRES-ratCD2, pMX-IRES-humanCD8), respectively. These plasmids were co-introduced into Phoenix packaging cells by using PEI MAX (Polysciences). […] MAIT TCR and MR1 co-expressing T cells (hereinafter also referred to as "co-expression reporter cells") were selected using antimouse TCRβ (H57-597), anti-human CD3 (HIT3a), and anti-human/mouse/rat MR1 (26.5) antibodies.
(§2) The validation experiment evaluated GFP expression and MR1 molecule surface expression 6 hr after stimulation of co-expression reporter cells with vehicle control, 5-OP-RU, and Ac-6-FP. GFP was evaluated by flow cytometry. MR1 molecule surface expression was represented by the MFI value of the stimulated cells.
(§3) In the above-mentioned screening, to stimulate "co-expression reporter cells," tissue extract samples and synthetic compounds were dissolved in water and added to each well of a 96-well plate in the absence of methylglyoxal. Some water-insoluble samples were dissolved in ethanol or chloroform/methanol (2:1, vol/vol) and coated onto the plates. "Co-expression reporter cells" (1-3×10^4 cells/100 µL/well) were cultured at 37°C for 6-20 hr, and the expression of GFP and MR1 molecules was analyzed by flow cytometry.

MR1 molecule = assay: co-expression reporter cell assay: MR1 surface expression by flow cytometry; type: cell-based; details: co-expression reporter cells, 37°C, 6-20 hr, MFI by flow cytometry
Experimental: These plasmids were co-introduced into Phoenix packaging cells by using PEI MAX (Polysciences).
as §2, §3

[1] = test system: MAIT TCRs derived from mouse (m); assay: reporter cell assay with mouse-derived MAIT TCR, mouse or human MR1; type: cell-based; details: regardless of the species of the MR1 molecule
Text: as §1
as §3, with “cytometry. The same procedure was performed in the subsequent Examples. • (2) To determine the chemical structure of the activation molecule contained in fraction #84, this fraction was further purified by hydrophilic interaction chromatography (HILIC), and a single fraction (named #84-45) was recovered. […]” for “cytometry.”

[2] = test system: MAIT TCRs derived from human (h); assay: reporter cell assay with human-derived MAIT TCR, mouse or human MR1; type: cell-based; details: regardless of the species of the MR1 molecule
Text: as §1
as §3, with “cytometry. The same procedure was performed in the subsequent Examples. • (2) To determine the chemical structure of the activation molecule contained in fraction #84, this fraction was further purified by hydrophilic interaction chromatography (HILIC), and a single fraction (named #84-45) was recovered. […]” for “cytometry.”

[3] = test system: Human peripheral blood mononuclear cells (PBMCs); assay: sc-TCR-RNA-seq analysis of stimulated PBMCs; type: cell-based; details: PBMCs stimulated for several days; for gene expression signature (induced genes): in contrast to 5-OP-RU; for TCR expressed by surviving MAIT cells: TRAV1-2-TRAJ33/12/20:TRBV6-4/6-1/20-1
Experimental: Human peripheral blood mononuclear cells (PBMCs) were stimulated with CA7S and CA3S for several days, and then sc-TCR-RNA-seq analysis was performed.

[4] = test system: MAIT cells in MR1-5-OP-RU tetramer-enriched thymocytes; assay: flow cytometry of thymic MAIT cells after administration to Sult2a-deficient mice; type: in vivo, mouse; details: 2-4 week old Sult2a-deficient mice administered with CA7S versus not administered
Experimental: The expression of MAIT cells in MR1-5-OP-RU tetramer-enriched thymocytes was analyzed by flow cytometry in 2-4 week old wild-type mice, Sult2a-deficient mice administered with CA7S, and Sult2a-deficient mice not administered with CA7S.
The data were obtained from experiments using three or more mice per group. *P<0.05, **P<0.01, P***<0.005, one-way ANOVA and Tukey's multiple comparison test were used.

SMILES | activation of the TCR of MAIT cells (GFP expression) (TCR of MAIT cells) | expression of MR1 molecules on the T cell surface (MR1 molecule) | also measured
C[C@H](CCC(=O)O)[C@H]1CC[C@H]2[C@@H]3[C@H](O)C[C@@H]4C[C@H](O)CC[C@]4(C)[C@H]3C[C@H](OS(=O)(=O)O)[C@]12C [CA12S] | did not | similarly increased the expression of the MR1 molecule on the T cell surface | –
C[C@H](CCC(=O)O)[C@H]1CC[C@H]2[C@@H]3[C@H](OS(=O)(=O)O)C[C@@H]4C[C@H](O)CC[C@]4(C)[C@H]3C[C@H](O)[C@]12C [CA7S, cholic acid 7-sulfate] | activated reporter cells expressing MAIT TCR; also recorded: weak agonist | similarly increased the expression of the MR1 molecule on the T cell surface | activation of MAIT TCR derived from mouse (m) [1]: activated; activation of MAIT TCR derived from human (h) [2]: activated; gene expression signature (induced genes) [3]: induced genes involved in homeostasis maintenance, such as IL7R, KLF2, and TCF7; TCR expressed by surviving MAIT cells [3]: expressed a representative MAIT TCR; MAIT cells in thymocytes [4]: restored MAIT cells
C[C@H](CCC(=O)O)[C@H]1CC[C@H]2[C@@H]3[C@H](O)C[C@@H]4C[C@H](OS(=O)(=O)O)CC[C@]4(C)[C@H]3C[C@H](O)[C@]12C [CA3S, cholic acid 3-sulfate] | activated MAIT reporter cells in the presence of MR1 molecules | similarly increased the expression of the MR1 molecule on the T cell surface | gene expression signature (induced genes) [3]: induced genes involved in homeostasis maintenance, such as IL7R, KLF2, and TCF7; TCR expressed by surviving MAIT cells [3]: expressed a representative MAIT TCR
C[C@H](CCC(=O)NCCS(=O)(=O)O)[C@H]1CC[C@H]2[C@@H]3[C@H](OS(=O)(=O)O)C[C@@H]4C[C@H](O)CC[C@]4(C)[C@H]3C[C@H](O)[C@]12C [TCA7S] | showed no activity | showed no activity | –
CC(=O)C=Nc1c(NC[C@H](O)[C@H](O)[C@H](O)CO)[nH]c(=O)[nH]c1=O [Analog 5-OP-RU, 5-(2-Oxopropylidene-amino)-6-D-ribitylaminouracil, reference compound] | dose-dependently enhanced GFP expression | – | –
C[C@H](CCC(=O)NCCS(=O)(=O)O)[C@H]1CC[C@H]2[C@@H]3CC[C@@H]4C[C@H](OS(=O)(=O)O)CC[C@]4(C)[C@H]3CC[C@]12C [TLCA3S, taurolitho-CA3S, reference compound] | did not show activity in reporter cells | – | –
C[C@H](CCC(=O)O)[C@H]1CC[C@H]2[C@@H]3[C@H](O)C[C@@H]4C[C@H](O)CC[C@]4(C)[C@H]3C[C@H](O)[C@]12C [CA, cholic acid, reference compound] | did not activate | did not activate | –
C[C@H](CCC(=O)O)[C@H]1CC[C@H]2[C@@H]3CC[C@@H]4C[C@H](OS(=O)(=O)O)CC[C@]4(C)[C@H]3C[C@H](O)[C@]12C [DCA3S, deoxy-CA3S, reference compound] | did not show activity in reporter cells | – | –
C[C@H](CCC(=O)NCCS(=O)(=O)O)[C@H]1CC[C@H]2[C@@H]3[C@H](O)C[C@@H]4C[C@H](OS(=O)(=O)O)CC[C@]4(C)[C@H]3C[C@H](O)[C@]12C [TCA3S] | showed no activity | showed no activity | –
C[C@H](CCC(=O)O)[C@H]1CC[C@H]2[C@@H]3CC[C@@H]4C[C@H](OS(=O)(=O)O)CC[C@]4(C)[C@H]3CC[C@]12C [LCA3S, litho-CA3S, reference compound] | did not show activity in reporter cells | – | –
